Experimental data taken from ChEMBL document CHEMBL1201862, “PubChem BioAssay data set” (2004).
The source made the active and inactive calls.

Key:
[1] = target: Peroxisome proliferator-activated receptor gamma/Nuclear receptor coactivator 1 (Homo sapiens, UniProt P37231); experiment: (§1) TR-FRET dose response biochemical High Throughput Screening assay for agonists of the steroid receptor coactivator 1 (SRC-1) recruitment by the peroxisome proliferator-activated receptor gamma (PPAR gamma): non-selective agonists. [Related pubchem assays (depositor defined):AID1300, AID1808, AID504735, AID631]; type: protein assay
[2] = target: Peroxisome proliferator-activated receptor gamma/Nuclear receptor coactivator 3 (Homo sapiens, UniProt P37231); experiment: as §1, with “3 (SRC-3)” for “1 (SRC-1)”, “assays: 1301 (Confirmation screen.), 1048 (Primary screen.)]” for “assays (depositor defined):AID1300, AID1808, AID504735, AID631]”; type: functional
[3] = target: Peroxisome proliferator-activated receptor gamma/Nuclear receptor coactivator 2 (Homo sapiens, UniProt P37231); experiment: TR-FRET dose response biochemical High Throughput Screening assay for agonists of the steroid receptor coactivator 2 (SRC-2) recruitment by the peroxisome proliferator-activated receptor gamma (PPAR gamma): non-selective agonists. [Related pubchem assays: 1297, 1032 ]; type: functional
[4] = cells
[5] = viability of uninfected HEp-2 cells – cell-based, HTS, cytotoxicity control for RSV inhibitor project, dose response (AID 2410); type: functional; conditions: human respiratory syncytial virus
[6] = target: T1, Estrogen receptor (Homo sapiens, UniProt P03372);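 also: potency for inhibiting coactivator peptide recruitment to the receptor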
T1 sequence (P03372 whole entry): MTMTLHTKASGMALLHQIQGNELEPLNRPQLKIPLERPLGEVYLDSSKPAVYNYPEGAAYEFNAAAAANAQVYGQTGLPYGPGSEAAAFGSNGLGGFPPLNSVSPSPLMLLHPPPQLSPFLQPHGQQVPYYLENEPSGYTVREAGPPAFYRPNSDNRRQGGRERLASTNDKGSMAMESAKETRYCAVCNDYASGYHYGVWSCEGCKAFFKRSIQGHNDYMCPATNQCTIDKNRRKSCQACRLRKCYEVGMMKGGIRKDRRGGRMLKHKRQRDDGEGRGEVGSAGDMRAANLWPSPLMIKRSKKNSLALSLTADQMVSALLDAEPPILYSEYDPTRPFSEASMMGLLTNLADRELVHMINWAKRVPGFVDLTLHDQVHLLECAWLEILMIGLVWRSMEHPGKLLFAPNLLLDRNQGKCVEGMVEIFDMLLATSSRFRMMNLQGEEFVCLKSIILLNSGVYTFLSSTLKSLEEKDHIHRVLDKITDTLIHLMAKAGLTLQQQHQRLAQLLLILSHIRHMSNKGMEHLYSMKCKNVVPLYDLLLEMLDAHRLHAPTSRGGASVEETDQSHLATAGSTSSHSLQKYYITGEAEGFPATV

[7] = test system: HeLa; experiment: ATP-based viability loss in HeLa cells – cell-based, CellTiter-Glo luminescence, cherry-pick samples, cytotoxicity control for MITF activator project, dose response (AID 540259); type: functional; conditions: Homo sapiens
[8] = cells; type: functional
[9] = target: Glucose-6-phosphate 1-dehydrogenase (Homo sapiens, UniProt P11413); experiment: inhibition of Homo sapiens G6PD, dose series – biochemical, fluorescence, selectivity assay for P. falciparum G6PD inhibitor project, dose response (AID 504792); type: functional
[10] = target: Estrogen receptor beta (Homo sapiens, UniProt Q92731);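 also: recombinant ER-beta bound to coactivator SRC1 peptide in presence of estradiol agonist; inhibitors block coactivator peptide binding and lower the FRET signal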
[11] = target: T2, Histone-lysine N-methyltransferase NSD2 (Homo sapiens, UniProt O96028); type: biochemical
T2 sequence (O96028 whole entry): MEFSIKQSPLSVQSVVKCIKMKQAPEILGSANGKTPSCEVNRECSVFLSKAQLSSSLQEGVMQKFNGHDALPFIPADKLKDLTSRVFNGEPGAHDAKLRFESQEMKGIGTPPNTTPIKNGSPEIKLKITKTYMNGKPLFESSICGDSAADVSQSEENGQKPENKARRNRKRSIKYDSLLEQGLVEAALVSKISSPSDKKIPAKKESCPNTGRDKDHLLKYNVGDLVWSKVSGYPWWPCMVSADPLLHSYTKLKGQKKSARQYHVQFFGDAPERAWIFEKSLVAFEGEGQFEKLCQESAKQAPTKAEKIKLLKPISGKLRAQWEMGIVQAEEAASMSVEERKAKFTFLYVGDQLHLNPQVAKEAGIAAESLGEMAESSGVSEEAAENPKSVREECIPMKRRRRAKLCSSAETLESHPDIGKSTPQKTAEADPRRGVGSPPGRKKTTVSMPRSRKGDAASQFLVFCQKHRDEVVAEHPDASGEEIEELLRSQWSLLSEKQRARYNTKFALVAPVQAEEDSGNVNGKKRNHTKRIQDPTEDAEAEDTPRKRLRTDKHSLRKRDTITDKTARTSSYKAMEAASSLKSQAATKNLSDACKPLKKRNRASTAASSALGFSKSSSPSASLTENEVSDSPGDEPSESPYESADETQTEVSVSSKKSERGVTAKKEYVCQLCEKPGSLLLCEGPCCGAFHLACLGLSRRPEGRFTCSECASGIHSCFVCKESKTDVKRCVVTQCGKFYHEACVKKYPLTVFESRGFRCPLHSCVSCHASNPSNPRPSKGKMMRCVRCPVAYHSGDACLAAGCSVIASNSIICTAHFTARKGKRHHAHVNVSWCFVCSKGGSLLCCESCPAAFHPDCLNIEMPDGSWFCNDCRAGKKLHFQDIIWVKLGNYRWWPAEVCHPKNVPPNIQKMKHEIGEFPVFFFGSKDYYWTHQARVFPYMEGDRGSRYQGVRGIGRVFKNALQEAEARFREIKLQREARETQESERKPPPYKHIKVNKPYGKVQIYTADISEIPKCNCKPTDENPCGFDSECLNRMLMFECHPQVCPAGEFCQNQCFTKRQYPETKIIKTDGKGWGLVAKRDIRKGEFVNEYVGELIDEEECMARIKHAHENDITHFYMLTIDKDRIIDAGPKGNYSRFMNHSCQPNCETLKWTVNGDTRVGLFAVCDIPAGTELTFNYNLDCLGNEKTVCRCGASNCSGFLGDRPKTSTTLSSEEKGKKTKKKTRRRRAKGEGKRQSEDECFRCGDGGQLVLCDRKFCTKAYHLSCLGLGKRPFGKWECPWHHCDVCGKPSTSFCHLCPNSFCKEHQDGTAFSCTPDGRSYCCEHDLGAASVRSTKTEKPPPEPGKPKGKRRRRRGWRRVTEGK

[12] = target: T3, Rac GTPase-activating protein 1 (Homo sapiens, UniProt Q9H0H5); experiment: blockers of MgcRacGAP-driven Rac1 GTP hydrolysis – biochemical, ADP Hunter fluorescence, primary and confirmatory, confirmation (AID 624330); type: functional
T3 sequence (Q9H0H5 whole entry): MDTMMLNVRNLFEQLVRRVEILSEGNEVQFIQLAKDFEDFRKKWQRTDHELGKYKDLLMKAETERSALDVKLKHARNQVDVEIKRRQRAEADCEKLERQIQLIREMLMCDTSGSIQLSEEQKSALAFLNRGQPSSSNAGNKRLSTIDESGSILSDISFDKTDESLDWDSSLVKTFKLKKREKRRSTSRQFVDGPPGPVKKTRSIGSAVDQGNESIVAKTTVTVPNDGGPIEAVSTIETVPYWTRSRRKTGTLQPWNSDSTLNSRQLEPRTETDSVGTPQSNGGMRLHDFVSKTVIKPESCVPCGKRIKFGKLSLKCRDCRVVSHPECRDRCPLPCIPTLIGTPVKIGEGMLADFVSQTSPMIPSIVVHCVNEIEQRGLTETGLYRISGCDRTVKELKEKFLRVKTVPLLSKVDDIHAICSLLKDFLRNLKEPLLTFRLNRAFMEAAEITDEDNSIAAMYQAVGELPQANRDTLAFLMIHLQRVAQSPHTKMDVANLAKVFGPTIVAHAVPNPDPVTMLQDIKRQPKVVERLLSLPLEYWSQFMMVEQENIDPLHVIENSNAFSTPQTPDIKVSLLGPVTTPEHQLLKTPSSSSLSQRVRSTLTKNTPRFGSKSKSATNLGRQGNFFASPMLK

[13] = target: T4, Cytochrome P450 1A2 (Homo sapiens, UniProt P05177);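 also: PubChem cytochrome P450 panel assay, CYP1A2 panel member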
T4 sequence (P05177 whole entry): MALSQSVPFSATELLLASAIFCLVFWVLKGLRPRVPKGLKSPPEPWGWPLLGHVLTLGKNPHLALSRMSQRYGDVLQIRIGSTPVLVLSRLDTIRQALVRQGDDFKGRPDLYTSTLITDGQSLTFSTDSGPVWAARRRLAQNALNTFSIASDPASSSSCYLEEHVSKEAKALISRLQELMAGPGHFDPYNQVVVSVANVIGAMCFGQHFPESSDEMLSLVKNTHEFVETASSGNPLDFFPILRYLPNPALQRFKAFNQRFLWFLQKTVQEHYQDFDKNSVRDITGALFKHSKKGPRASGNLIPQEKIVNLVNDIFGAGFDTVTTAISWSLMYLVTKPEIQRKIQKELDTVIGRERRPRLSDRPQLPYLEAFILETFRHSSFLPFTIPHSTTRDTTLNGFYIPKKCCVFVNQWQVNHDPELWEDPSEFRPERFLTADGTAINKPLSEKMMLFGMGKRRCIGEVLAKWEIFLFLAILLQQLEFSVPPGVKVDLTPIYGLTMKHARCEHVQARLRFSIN

[14] = target: Cytochrome P450 2C9 (Homo sapiens, UniProt P11712)
[15] = target: Cytochrome P450 3A4 (Homo sapiens, UniProt P08684);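 also: CYP3A4 tested as one member of a cytochrome P450 panel screen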
[16] = target: Large T antigen (Simian virus 40, UniProt P03070); type: functional, Betapolyomavirus macacae;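 also: Confirmatory-stage PubChem screen for compounds that inhibit SV40 T antigen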
[17] = test system: H9c2; experiment: cells; type: functional, cell-based; conditions: Rattus norvegicus, H9c2, Myocardium;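 also: confirmatory concentration-response retest of ultra-high-throughput screening hits for modulation of myocardial damage; cell death induced by hydrogen peroxide oxidative stress; compound pretreatment for 60 min then peroxide exposure for 2 h; potency is for protecting the cells against peroxide damage rather than for killing them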
[18] = target: T5, Heat shock factor protein 1 (Mus musculus, UniProt P38532); experiment: decrease of HSF1-responsive luciferase luminescence – cell-based, NIH3T3, dose retest, confirmation (AID 2382); type: functional;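 also: NIH3T3 fibroblasts with HSF1-driven luciferase reporter stressed by proteasome inhibitor MG132; luminescence from HSF1-driven luciferase expression after 8 hours of MG132 stress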
T5 sequence (P38532 whole entry): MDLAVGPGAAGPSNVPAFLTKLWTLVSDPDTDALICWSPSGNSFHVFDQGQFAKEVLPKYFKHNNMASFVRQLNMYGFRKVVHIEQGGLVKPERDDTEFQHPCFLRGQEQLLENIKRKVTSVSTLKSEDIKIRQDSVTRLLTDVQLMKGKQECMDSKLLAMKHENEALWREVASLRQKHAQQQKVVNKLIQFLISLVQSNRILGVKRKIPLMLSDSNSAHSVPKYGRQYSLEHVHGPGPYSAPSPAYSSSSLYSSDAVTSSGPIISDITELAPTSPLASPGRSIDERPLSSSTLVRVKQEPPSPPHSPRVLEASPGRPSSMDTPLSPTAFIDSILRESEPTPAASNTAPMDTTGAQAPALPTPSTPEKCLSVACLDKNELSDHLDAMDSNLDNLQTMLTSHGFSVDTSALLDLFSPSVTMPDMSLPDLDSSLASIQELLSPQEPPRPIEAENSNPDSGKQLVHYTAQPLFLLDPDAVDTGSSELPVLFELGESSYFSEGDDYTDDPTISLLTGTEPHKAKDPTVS

Chain of Peroxisome proliferator-activated receptor gamma/Nuclear receptor coactivator 1 (P37231 whole entry): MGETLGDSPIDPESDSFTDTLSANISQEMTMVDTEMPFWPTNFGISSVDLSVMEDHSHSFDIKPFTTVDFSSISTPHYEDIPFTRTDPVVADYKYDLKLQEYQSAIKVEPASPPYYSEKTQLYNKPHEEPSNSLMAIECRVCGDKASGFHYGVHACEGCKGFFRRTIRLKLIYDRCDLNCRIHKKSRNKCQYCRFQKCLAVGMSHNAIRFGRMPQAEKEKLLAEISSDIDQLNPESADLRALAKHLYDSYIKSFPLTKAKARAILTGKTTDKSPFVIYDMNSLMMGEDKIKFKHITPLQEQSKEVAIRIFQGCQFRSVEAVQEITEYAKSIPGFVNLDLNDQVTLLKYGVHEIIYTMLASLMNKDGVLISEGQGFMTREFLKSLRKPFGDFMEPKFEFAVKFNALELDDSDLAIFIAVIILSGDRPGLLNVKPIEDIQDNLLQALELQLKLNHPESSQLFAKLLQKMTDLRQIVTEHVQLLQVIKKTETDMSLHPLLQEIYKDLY
Chain of Peroxisome proliferator-activated receptor gamma/Nuclear receptor coactivator 1 (Q15788 whole entry, further chain): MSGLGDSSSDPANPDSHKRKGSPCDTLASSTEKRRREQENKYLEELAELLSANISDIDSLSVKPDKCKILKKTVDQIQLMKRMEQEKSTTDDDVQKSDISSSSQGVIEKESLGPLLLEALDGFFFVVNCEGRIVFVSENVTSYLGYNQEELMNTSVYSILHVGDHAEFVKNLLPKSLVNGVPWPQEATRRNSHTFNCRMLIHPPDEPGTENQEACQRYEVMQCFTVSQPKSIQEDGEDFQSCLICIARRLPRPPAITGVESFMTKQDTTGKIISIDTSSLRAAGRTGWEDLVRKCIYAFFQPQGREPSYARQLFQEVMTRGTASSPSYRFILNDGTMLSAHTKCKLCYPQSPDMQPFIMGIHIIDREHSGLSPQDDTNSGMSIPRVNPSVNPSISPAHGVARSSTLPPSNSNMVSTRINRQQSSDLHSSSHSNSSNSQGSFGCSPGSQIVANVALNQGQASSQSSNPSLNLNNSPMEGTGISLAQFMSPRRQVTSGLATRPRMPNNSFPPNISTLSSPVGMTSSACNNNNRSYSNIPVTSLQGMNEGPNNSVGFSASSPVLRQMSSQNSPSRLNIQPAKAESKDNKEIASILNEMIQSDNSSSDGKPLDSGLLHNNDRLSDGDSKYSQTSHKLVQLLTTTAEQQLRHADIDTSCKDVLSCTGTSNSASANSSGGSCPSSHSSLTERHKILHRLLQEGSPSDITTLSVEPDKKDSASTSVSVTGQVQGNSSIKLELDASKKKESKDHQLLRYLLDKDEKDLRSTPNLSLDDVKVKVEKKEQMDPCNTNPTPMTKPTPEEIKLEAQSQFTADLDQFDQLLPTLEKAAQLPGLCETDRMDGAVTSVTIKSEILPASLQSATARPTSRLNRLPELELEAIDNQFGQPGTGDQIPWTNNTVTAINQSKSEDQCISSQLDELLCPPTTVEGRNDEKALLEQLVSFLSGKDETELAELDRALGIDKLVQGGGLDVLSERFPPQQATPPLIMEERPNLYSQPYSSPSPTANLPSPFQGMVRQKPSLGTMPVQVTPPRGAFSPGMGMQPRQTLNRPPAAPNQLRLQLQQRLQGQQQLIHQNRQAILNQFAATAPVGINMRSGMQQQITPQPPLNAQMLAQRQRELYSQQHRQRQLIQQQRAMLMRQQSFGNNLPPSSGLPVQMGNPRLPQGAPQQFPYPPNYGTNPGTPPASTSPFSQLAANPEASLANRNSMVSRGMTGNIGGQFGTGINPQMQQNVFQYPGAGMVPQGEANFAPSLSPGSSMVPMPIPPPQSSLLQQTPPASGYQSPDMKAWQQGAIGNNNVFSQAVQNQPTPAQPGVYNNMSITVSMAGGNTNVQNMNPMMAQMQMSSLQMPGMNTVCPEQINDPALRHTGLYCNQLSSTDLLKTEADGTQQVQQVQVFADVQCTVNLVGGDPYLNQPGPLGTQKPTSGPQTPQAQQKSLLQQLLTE
Chain of Peroxisome proliferator-activated receptor gamma/Nuclear receptor coactivator 3 (P37231 whole entry): as the sequence (P37231 whole entry) above
Chain of Peroxisome proliferator-activated receptor gamma/Nuclear receptor coactivator 3 (Q9Y6Q9 whole entry, further chain): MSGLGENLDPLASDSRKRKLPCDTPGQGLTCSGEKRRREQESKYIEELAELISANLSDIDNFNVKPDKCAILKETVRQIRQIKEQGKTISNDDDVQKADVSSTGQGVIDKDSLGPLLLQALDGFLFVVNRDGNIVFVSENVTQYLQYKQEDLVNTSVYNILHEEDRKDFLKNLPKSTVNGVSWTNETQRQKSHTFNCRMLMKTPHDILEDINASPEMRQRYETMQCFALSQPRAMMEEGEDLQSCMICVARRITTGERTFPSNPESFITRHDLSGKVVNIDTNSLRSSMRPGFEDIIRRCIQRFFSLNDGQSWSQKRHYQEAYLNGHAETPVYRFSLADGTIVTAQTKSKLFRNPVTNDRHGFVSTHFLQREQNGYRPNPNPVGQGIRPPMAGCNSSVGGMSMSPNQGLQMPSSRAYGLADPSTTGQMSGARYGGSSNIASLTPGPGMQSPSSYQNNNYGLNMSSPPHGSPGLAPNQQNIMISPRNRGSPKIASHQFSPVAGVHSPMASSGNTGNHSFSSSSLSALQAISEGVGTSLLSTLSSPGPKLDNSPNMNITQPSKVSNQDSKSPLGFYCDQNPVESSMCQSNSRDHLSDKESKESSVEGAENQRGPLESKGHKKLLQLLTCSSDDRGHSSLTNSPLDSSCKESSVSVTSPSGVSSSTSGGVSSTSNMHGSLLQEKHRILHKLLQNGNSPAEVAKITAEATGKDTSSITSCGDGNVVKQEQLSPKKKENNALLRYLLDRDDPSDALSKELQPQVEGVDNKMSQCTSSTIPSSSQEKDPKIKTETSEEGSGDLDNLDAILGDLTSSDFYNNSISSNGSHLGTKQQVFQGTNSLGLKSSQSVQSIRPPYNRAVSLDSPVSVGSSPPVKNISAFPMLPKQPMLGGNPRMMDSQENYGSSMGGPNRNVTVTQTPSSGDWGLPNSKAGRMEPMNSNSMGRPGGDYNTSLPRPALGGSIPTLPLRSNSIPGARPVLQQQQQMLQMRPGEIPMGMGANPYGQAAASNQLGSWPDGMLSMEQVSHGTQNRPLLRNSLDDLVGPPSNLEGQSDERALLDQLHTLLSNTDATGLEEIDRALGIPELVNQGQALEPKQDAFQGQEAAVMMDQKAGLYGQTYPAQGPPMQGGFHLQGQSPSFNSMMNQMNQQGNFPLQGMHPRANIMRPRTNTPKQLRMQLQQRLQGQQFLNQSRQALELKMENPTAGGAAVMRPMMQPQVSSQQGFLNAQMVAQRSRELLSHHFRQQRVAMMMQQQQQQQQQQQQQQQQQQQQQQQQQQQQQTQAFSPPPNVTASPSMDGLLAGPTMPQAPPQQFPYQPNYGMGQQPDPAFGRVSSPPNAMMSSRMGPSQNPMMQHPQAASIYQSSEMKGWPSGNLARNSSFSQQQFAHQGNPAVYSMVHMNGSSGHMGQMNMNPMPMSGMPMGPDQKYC
Chain of Glucose-6-phosphate 1-dehydrogenase (P11413 whole entry): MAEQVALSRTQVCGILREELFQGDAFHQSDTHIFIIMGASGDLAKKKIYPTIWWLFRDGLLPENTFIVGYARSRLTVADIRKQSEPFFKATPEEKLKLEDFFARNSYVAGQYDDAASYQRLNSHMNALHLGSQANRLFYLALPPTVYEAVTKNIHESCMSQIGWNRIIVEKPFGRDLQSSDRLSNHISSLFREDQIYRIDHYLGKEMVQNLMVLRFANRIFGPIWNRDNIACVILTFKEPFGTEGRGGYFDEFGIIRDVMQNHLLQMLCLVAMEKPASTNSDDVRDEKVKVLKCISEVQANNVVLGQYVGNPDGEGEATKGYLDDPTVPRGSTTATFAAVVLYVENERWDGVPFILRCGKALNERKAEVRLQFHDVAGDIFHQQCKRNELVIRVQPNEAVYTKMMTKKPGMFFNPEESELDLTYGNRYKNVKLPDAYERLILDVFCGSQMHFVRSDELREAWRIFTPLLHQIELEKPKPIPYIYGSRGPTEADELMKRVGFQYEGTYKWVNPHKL
Chain of Estrogen receptor beta (Q92731 whole entry): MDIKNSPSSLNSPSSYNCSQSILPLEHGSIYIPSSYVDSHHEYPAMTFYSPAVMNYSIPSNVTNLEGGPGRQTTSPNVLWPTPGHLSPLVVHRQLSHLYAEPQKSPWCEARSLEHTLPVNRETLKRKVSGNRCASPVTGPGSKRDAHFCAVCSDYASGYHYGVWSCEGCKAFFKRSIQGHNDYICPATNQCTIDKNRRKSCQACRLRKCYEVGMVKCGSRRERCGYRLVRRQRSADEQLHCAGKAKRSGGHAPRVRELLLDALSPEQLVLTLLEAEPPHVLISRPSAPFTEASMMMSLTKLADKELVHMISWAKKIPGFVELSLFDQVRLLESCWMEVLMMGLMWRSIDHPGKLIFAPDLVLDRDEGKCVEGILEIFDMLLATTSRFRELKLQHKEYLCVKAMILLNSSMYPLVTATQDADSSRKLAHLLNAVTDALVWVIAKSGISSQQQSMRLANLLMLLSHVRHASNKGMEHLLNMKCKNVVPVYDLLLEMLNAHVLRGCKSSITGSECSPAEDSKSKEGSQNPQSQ

For CCOc1ccc(NC(=O)CSc2ncnc3c2sc2ccccc23)cc1, the EC50 [1] was > 79.4 µM (inactive), the EC50 [2] was 81.4 µM (not active) and the EC50 [3] was 32 µM (not active).

For Cc1[nH]c2ccc(-c3nnc(SCC(=O)c4ccccc4F)o3)cc2c1C, the IC50 [4] was 40.7 µM (active), the CC50 [5] was 32.8 µM (active) and the IC50 [6] was 26 µM (active).

For Cc1[nH]c(C)c(S(=O)(=O)N2CCN(c3cccc(Cl)c3)CC2)c1C(=O)N1CCCCC1, the IC50 [4] was 31.5 µM (active) and the CC50 [5] was 29.3 µM (active).

In the case of Cc1ccc(NCCC(=O)c2cccs2)cc1C, the AC50 [7] is reported as > 350 µM (inactive) and the IC50 [8] is reported as 20.7 µM (active).

For CN(C(=O)c1cc(-c2ccccc2)on1)C1CCCCC1, the AC50 [7] was > 350 µM (inactive).

For CN1CCN(C(=S)c2ccc([N+](=O)[O-])cc2)CC1, the IC50 [9] was > 80 µM (inactive).

For CCn1c(=O)cc(SCC(=O)NCCN2CCN(Cc3ccccc3)CC2)c2ccccc21, the EC50 [1] was > 79.4 µM (inactive), the EC50 [2] was > 79.4 µM (not active) and the EC50 [3] was > 79.4 µM (not active).

For O=C1c2ccccc2/C(=C\C#Cc2ccccn2)N1c1ccccc1, the AC50 [7] was 42.6 µM (active).

In the case of CN1CC2(C)CN(C(c3ccccc3)c3ccccc3)CC(C)(C1)C2O (configuration not stated), the IC50 [10] is reported as > 50 µM (not active).

In the case of COc1ccccc1Nc1nc(-c2cccc([N+](=O)[O-])c2)cs1, the IC50 [4] is reported as 12.3 µM (active) and the CC50 [5] is reported as 25.1 µM (active).

For CN(C)c1ccc2cc(S(=O)(=O)O)cc(O)c2c1, the AC50 [11] was 0.747 µM (active) and the IC50 [12] was 42.9 µM (active).

In the case of CC(=N)/C(C#N)=C(/O)COc1ncnc2ccc(Br)cc12, the AC50 [13] is reported as 0.0316 µM (inconclusive), the IC50 [4] is reported as 1.14 µM (active) and the AC50 [14] is reported as 11.2 µM (inconclusive). For the same molecule, the AC50 [15] was 17.8 µM (inconclusive).

For COc1c(C)cccc1C(=O)NC(=S)Nc1cccc2nsnc12, the EC50 [1] was 3.68 µM (active), the EC50 [2] was 39.5 µM (not active) and the EC50 [3] was 4.14 µM (active).

In the case of CC(C)c1ccc(S(=O)(=O)N2CCN(CC(=O)c3ccc(O)c(O)c3)CC2)cc1, the AC50 [11] is reported as 4.68 µM (active), the IC50 [16] is reported as 23.6 µM (active) and the IC50 [17] is reported as > 79 µM (inactive).

With COc1cccc(-c2c(C(=O)N/N=C/c3ccc(C)s3)nnn2-c2nonc2N)c1 the EC50 [18] was > 195 µM (not active) and the IC50 [9] was > 80 µM (inactive).

In the case of CSc1cnn(Cc2ccccc2)c(=O)c1SCc1ccccc1, the EC50 [1] is reported as 3.27 µM (active), the EC50 [2] is reported as > 79.4 µM (not active) and the EC50 [3] is reported as 7.94 µM (active).

With CC(=O)c1ccc2oc3ccccc3c(=O)c2c1 the AC50 [7] was 41 µM (active).
